Measurements as given in US20230241098A1, “ANTIVIRAL PHARMACEUTICAL COMPOSITION” (priority 2020, published 2023).
Where “and” joins values, the source holds several entries; their conditions need not be identical. Identical values can stand only once. Like-named read-outs stand apart in the source and are kept apart here.

Columns and labels:
[1] = test system: MucilAir nasal human 3D Epithelial model; details: Examples 2 and 4 (RSV A experiments); all measured timepoints
[2] = test system: MucilAir nasal human 3D Epithelial model
[3] = test system: HRV-B14; test: Viral genome copy number (quantitative RT-PCR of apical washes) in HRV-B14-infected MucilAir nasal epithelia (Example 6); format: cell-based, human rhinovirus; details: for Mean Log 10 ((Copies/ml) + 1), viral genome copy number: 5 μM, positive antiviral control
[4] = test system: HRV-A16; test: Viral genome copy number (quantitative RT-PCR of apical washes) in HRV-A16-infected MucilAir nasal epithelia (Example 5); format: cell-based, human rhinovirus; details: twice daily apical, rupintrivir 5 μM basal
[5] = test system: RANTES; test: RANTES release into basal medium (ELISA); format: cell-based, human
[6] = test system: HRV-C15; test: Viral genome copy number (quantitative RT-PCR of apical washes) in HRV-C15-infected MucilAir nasal epithelia (Examples 1 and 3); format: cell-based, human rhinovirus; details: for effect on RV-C15 replication (in words): rupintrivir basal, comparison of fucoidan sources
[7] = test system: Interleukin 8 (IL-8); test: Interleukin 8 release into basal medium (ELISA); format: cell-based, human
[8] = test system: respiratory syncytial virus A; format: cell-based; details: RSV A
[9] = test system: MucilAir nasal human 3D Epithelial model; test: Cilia beating frequency (CBF); format: cell-based; details: Example 4; day 4; once or twice daily; ribavirin basal
[10] = test system: MucilAir nasal human 3D Epithelial model; test: Mucociliary clearance (MCC), bead velocity; format: cell-based; details: Example 4; day 4; once or twice daily; ribavirin basal
[11] = Example 4, once or twice daily (25 μg Test UP: see once daily exception), ribavirin basal

For `CCOC(=O)/C=C/[C@H](C[C@@H]1CCNC1=O)NC(=O)[C@@H](CC(=O)[C@@H](NC(=O)c1cc(C)on1)C(C)C)Cc1ccc(F)cc1` [Rupintrivir], the “cytotoxicity (LDH, Triton X-100 = 100%)” value [1] was “below 5%”, the “effect on HRV-C15 induced transient TEER decrease (in words)” value ([2]; Example 1, HRV-C15-inoculated inserts, apical or basal as in label) was “prevented this transient TEER decrease” and the “TEER of inoculated inserts” value ([2]; Example 3, HRV-C15-inoculated inserts) was “above 100 Ω·cm^2”. For the same molecule, the “Mean Log 10 ((Copies/ml) + 1), viral genome copy number” value ([3]; time 3.5 h) was 0.00 Log 10 ((Copies/ml) + 1), the “Mean Log 10 ((Copies/ml) + 1), viral genome copy number” value ([3]; time 24 h) was 3.65 Log 10 ((Copies/ml) + 1) and the “Mean Log 10 ((Copies/ml) + 1), viral genome copy number” value ([3]; time 48 h) was 4.23 Log 10 ((Copies/ml) + 1). The “Mean Log 10 ((Copies/ml) + 1), viral genome copy number” value ([3]; time 72 h) was 4.26 Log 10 ((Copies/ml) + 1), the “Mean Log 10 ((Copies/ml) + 1), viral genome copy number” value ([3]; time 96 h) was 0.00 Log 10 ((Copies/ml) + 1) and the “detection of virus (in words)” value ([3]; RV-B14, Day 4) was “no more virus was detected”. The “Mean viral genome copy number” value ([4]; 3.5 hours post infection, 0.00 = below detection limit) was 0.00 Log 10 ((Copies/ml) + 1), the “Mean viral genome copy number” value ([4]; 24 hours post infection, 0.00 = below detection limit) was 0.00 Log 10 ((Copies/ml) + 1) and the “Mean viral genome copy number” value ([4]; 48 hours post infection, 0.00 = below detection limit) was 4.70 Log 10 ((Copies/ml) + 1). For the same molecule, the “Mean viral genome copy number” value ([4]; 72 hours post infection, 0.00 = below detection limit) was 5.30 Log 10 ((Copies/ml) + 1), the “Mean viral genome copy number” value ([4]; 96 hours post infection) was 3.77 Log 10 ((Copies/ml) + 1) and the “effect on virus-induced increase of RANTES release (in words)” value ([5]; Example 3, RV-C15, rupintrivir basal) was “effectively prevented the virus-induced increase of RANTES release”. For the same molecule, the “Mean viral genome copy number” value ([6]; Example 1, HRV-C15, 3.5 hours post infection, AP apical / BL basal as in label, rupintrivir 5 μM basal, 0.00 = below detection limit) was 0.00 Log 10 ((Copies/ml) + 1), the “Mean viral genome copy number” value ([6]; Example 1, HRV-C15, 24 hours post infection, AP apical / BL basal as in label, rupintrivir 5 μM basal, 0.00 = below detection limit) was 5.57 Log 10 ((Copies/ml) + 1) and the “Mean viral genome copy number” value ([6]; Example 1, HRV-C15, 48 hours post infection, AP apical / BL basal as in label, rupintrivir 5 μM basal) was 6.46 Log 10 ((Copies/ml) + 1). The “Mean viral genome copy number” value ([6]; Example 1, HRV-C15, 72 hours post infection, AP apical / BL basal as in label, rupintrivir 5 μM basal) was 6.69 Log 10 ((Copies/ml) + 1), the “Mean viral genome copy number” value ([6]; Example 1, HRV-C15, 96 hours post infection, AP apical / BL basal as in label, rupintrivir 5 μM basal) was 7.17 Log 10 ((Copies/ml) + 1) and the “decrease of the viral load” value ([6]; Example 1, HRV-C15, rupintrivir 5 μM basal, on average) was “two”. The “effect on RV-C15 replication (in words)” value ([6]; Example 3) was “most effective inhibitor of RV-C15 replication”, the “effect on RV-C15 replication (in words)” value ([6]; Example 3, listed as rupintrivir) was “significantly reduced viral genome copy number” and the “effect on RV-C15 induced IL-8 release (in words)” value ([7]; Example 1, HRV-C15-inoculated inserts, day 4 post infection) was “prevented”. For the same molecule, the “effect on RSV A induced IL-8 release (in words)” value ([7]; Example 2, RSV A-inoculated inserts, day 2 and day 4 as stated) was “prevented”.

In the case of `NC(=O)c1ncn([C@@H]2O[C@H](CO)[C@@H](O)[C@H]2O)n1` [Ribavirin, ribavirin], the “Mean viral genome copy number” value ([8]; Example 2, 3.5 hours post infection, AP apical / BL basal as in label, ribavirin 100 uM basal, 0.00 = below detection limit) is reported as 5.63 Log 10 ((Copies/ml) + 1) and 3.52 Log 10 ((Copies/ml) + 1), the “Mean viral genome copy number” value ([8]; Example 2, 24 hours post infection, AP apical / BL basal as in label, ribavirin 100 uM basal, 0.00 = below detection limit) is reported as 6.48 Log 10 ((Copies/ml) + 1) and 10.22 Log 10 ((Copies/ml) + 1) and the “Mean viral genome copy number” value ([8]; Example 2, 48 hours post infection, AP apical / BL basal as in label, ribavirin 100 uM basal) is reported as 7.07 Log 10 ((Copies/ml) + 1) and 11.46 Log 10 ((Copies/ml) + 1). For the same molecule, the “Mean viral genome copy number” value ([8]; Example 2, 72 hours post infection, AP apical / BL basal as in label, ribavirin 100 uM basal) was 7.78 Log 10 ((Copies/ml) + 1) and 10.33 Log 10 ((Copies/ml) + 1), the “Mean viral genome copy number” value ([8]; Example 2, 96 hours post infection, AP apical / BL basal as in label, ribavirin 100 uM basal) was 8.32 Log 10 ((Copies/ml) + 1) and 9.09 Log 10 ((Copies/ml) + 1) and the “decrease of the viral load” value ([8]; Example 2, ribavirin 100 μM basal) was 3 logs. For the same molecule, the “Mean viral genome copy number” value ([8]; Example 4, 3.5 hours post infection, first block of Table 12, 1x (once daily apical), ribavirin 100 μM basal) was 6.76 Log 10 ((Copies/ml) + 1), the “Mean viral genome copy number” value ([8]; Example 4, 3.5 hours post infection, second block of Table 12, head prints 1x, ribavirin 100 μM basal) was 6.76 Log 10 ((Copies/ml) + 1) and the “Mean viral genome copy number” value ([8]; Example 4, 24 hours post infection, first block of Table 12, 1x (once daily apical), ribavirin 100 μM basal) was 7.06 Log 10 ((Copies/ml) + 1). The “Mean viral genome copy number” value ([8]; Example 4, 24 hours post infection, second block of Table 12, head prints 1x, ribavirin 100 μM basal) was 7.06 Log 10 ((Copies/ml) + 1), the “Mean viral genome copy number” value ([8]; Example 4, 48 hours post infection, first block of Table 12, 1x (once daily apical), ribavirin 100 μM basal) was 6.79 Log 10 ((Copies/ml) + 1) and the “Mean viral genome copy number” value ([8]; Example 4, 48 hours post infection, second block of Table 12, head prints 1x, ribavirin 100 μM basal) was 6.79 Log 10 ((Copies/ml) + 1). For the same molecule, the “Mean viral genome copy number” value ([8]; Example 4, 72 hours post infection, first block of Table 12, 1x (once daily apical), ribavirin 100 μM basal) was 7.40 Log 10 ((Copies/ml) + 1), the “Mean viral genome copy number” value ([8]; Example 4, 72 hours post infection, second block of Table 12, head prints 1x, ribavirin 100 μM basal) was 7.40 Log 10 ((Copies/ml) + 1) and the “Mean viral genome copy number” value ([8]; Example 4, 96 hours post infection, first block of Table 12, 1x (once daily apical), ribavirin 100 μM basal) was 8.89 Log 10 ((Copies/ml) + 1). The “Mean viral genome copy number” value ([8]; Example 4, 96 hours post infection, second block of Table 12, head prints 1x, ribavirin 100 μM basal) was 8.89 Log 10 ((Copies/ml) + 1), the “TEER of inoculated inserts (in words)” value ([2]; Example 4, RSV A-inoculated inserts, once or twice daily, ribavirin basal) was “TEER values similar to that of the mock inserts” and the “effect on RSV A-induced RANTES release (in words)” value [5, 11] was “effectively prevented the virus-induced increase of RANTES release”. The “effect on RSV A induced cilia impairment (in words)” value [9] was “prevented”, the “Mean viral genome copy number” value ([6]; Example 3, HRV-C15, 3.5 hours post infection, 1x (once daily apical), positive control basal, 0.00 = below detection limit) was 0.00 Log 10 ((Copies/ml) + 1) and the “Mean viral genome copy number” value ([6]; Example 3, HRV-C15, 3.5 hours post infection, 2x (twice daily apical), positive control basal, 0.00 = below detection limit) was 0.00 Log 10 ((Copies/ml) + 1). For the same molecule, the “Mean viral genome copy number” value ([6]; Example 3, HRV-C15, 24 hours post infection, 1x (once daily apical), positive control basal) was 5.14 Log 10 ((Copies/ml) + 1), the “Mean viral genome copy number” value ([6]; Example 3, HRV-C15, 24 hours post infection, 2x (twice daily apical), positive control basal) was 5.14 Log 10 ((Copies/ml) + 1) and the “Mean viral genome copy number” value ([6]; Example 3, HRV-C15, 48 hours post infection, 1x (once daily apical), positive control basal) was 7.63 Log 10 ((Copies/ml) + 1). The “Mean viral genome copy number” value ([6]; Example 3, HRV-C15, 48 hours post infection, 2x (twice daily apical), positive control basal) was 7.63 Log 10 ((Copies/ml) + 1), the “Mean viral genome copy number” value ([6]; Example 3, HRV-C15, 72 hours post infection, 1x (once daily apical), positive control basal) was 6.89 Log 10 ((Copies/ml) + 1) and the “Mean viral genome copy number” value ([6]; Example 3, HRV-C15, 72 hours post infection, 2x (twice daily apical), positive control basal) was 6.89 Log 10 ((Copies/ml) + 1). For the same molecule, the “Mean viral genome copy number” value ([6]; Example 3, HRV-C15, 96 hours post infection, 1x (once daily apical), positive control basal) was 6.24 Log 10 ((Copies/ml) + 1), the “Mean viral genome copy number” value ([6]; Example 3, HRV-C15, 96 hours post infection, 2x (twice daily apical), positive control basal) was 6.24 Log 10 ((Copies/ml) + 1) and the “effect on RSV A induced IL-8 release (in words)” value [7, 11] was “prevented the RSV A induced IL-8 release”. The “effect on RSV A induced MCC reduction (in words)” value [10] was “attenuated this RSV A induced MCC reduction”.

“Polyethylene glycol tert-octyl phenyl ether [Triton X-100]” was tested, and the TEER ([2]; positive control for cytotoxicity, 10% (v/v) in normal saline, 50 μl apically, Examples 1 to 4) was “below 100 Ω·cm^2”.
